In paper PMC10139035, “Carborane-Containing Hydroxamate MMP Ligands for the Treatment of Tumors Using Boron Neutron Capture Therapy (BNCT): Efficacy without Tumor Cell Entry” (International Journal of Molecular Sciences, 2023):

Assays:
SCC VII tumor cells [1] = test: Cytotoxicity: IC50, growth inhibition after 3 days of continuous exposure; format: cell-based; details: 3 days continuous exposure, read-out: IC50 (cell toxicity)
Method: Suspensions of 105 SCC VII cells/200 μL MEM containing 10% FCS (fetal calf serum) were incubated for 3 days in 96-well microplate with various concentrations of 1 and 2 (B1 and B2). After 3 days of exposure, the cell were washed with PBS and fixed with 70% ethanol. The SCC VII cells were stained with 5% Giemsa solution for 15 min. After removing the solution, the cells were dried in air and Giemsa stained cells were uniformized by the addition of 100 μL of alcohol. The optical absorbance at 595 nm was measured by optical densitometer.

SCC VII tumor cells [2] = test: In vitro BNCT survival study, colony formation assay; format: cell-based
Method: SCC VII tumor cells were incubated and stabilized in a logarithmic subconfluent growth phase at 36 °C in a 5% carbon dioxide atmosphere in a 10 cm diameter tissue culture dishes (100 mm tissue culture dishes; Corning Glass Works, Corning, NY, USA) containing Eagle’s MEM containing 10% heat-inactivated fetal bovine serum and 2 mM L-glutamine. The U87 delta EGFR glioma cell line, kindly provided by Dr. H. Michiue (Okayama University, Okayama, Japan), which stably expressed the constitutively active EGFRvIII, was used in the colony formation assay. […] The thermal neutron fluence was determined by averaging two gold foils symmetrically attached to the surface of the Teflon tube along the direction of the incidence of the thermal neutrons. The neutron absorbed dose (Gy) was calculated using the flux-to-dose conversion factor [61]. […] Ten days later, the colonies were fixed with 70% ethanol and stained with 5% Giemsa solution for quantitative visualization by the naked eye.

[3] = test system: U87 delta EGFR glioma cells; test: as above; format: cell-based; details: for Survival rate: 20 ppm of 10B in BPA; for Thermal neutron fluence yielding the D37 value: BPA 20 ppm 10B
Method: SCC VII tumor cells were incubated and stabilized in a logarithmic subconfluent growth phase at 36 °C in a 5% carbon dioxide atmosphere in a 10 cm diameter tissue culture dishes (100 mm tissue culture dishes; Corning Glass Works, Corning, NY, USA) containing Eagle’s MEM containing 10% heat-inactivated fetal bovine serum and 2 mM L-glutamine. The U87 delta EGFR glioma cell line, kindly provided by Dr. H. Michiue (Okayama University, Okayama, Japan), which stably expressed the constitutively active EGFRvIII, was used in the colony formation assay. The cells were maintained in Dulbecco’s modified Eagle’s medium (DMEM; FUJIFILM Wako Pure Chemical Corporation, Richmond, VA, USA with 10% fetal bovine serum (FBS), penicillin, and streptomycin at 37 °C in a humidified atmosphere containing 5% CO2. The stock solutions of B1 and B2 were obtained by dissolving 6 mg of them in 1 ml DMSO, respectively. For SCC VII cells, after adding 100 μL of a boron solution, the cells were incubated for boron loading into tumor cells for 5 h. […] The ^10B (0.143 ppm ^10B for 1 (B1) and 0.101 ppm for 2 (B2) in the medium was reconfirmed by PGS (prompt γ spectroscopy) in the SCC VII colony forming assay. After boron loading, the cells were trypsinized and washed three times by PBS, and 5 × 10^3 cells/mL MEM (FCS+) were irradiated with thermal neutrons in column-shaped Teflon tubes (1 × 3 cm). […] The irradiation times were 0, 15, 30 and 45 min. The thermal neutrons flux was 1.8 × 10^9 cm^−2·s^−1. The thermal neutron fluence was determined by averaging two gold foils symmetrically attached to the surface of the Teflon tube along the direction of the incidence of the thermal neutrons. The neutron absorbed dose (Gy) was calculated using the flux-to-dose conversion factor [61]. The chemical composition of the tumors was assumed to be 10.7% hydrogen, 12.1% carbon, 2% nitrogen, 71.4% oxygen, and 3.8% others. The γ-ray dose rate, including secondary γ-rays, was 1.0 × 10^−2 Gy·min^−1, according to a thermoluminescence dosimeter attached to the surface of a Teflon tube containing 1 mL MEM. After thermal neutron exposure, 300 or 900 cells were placed in three Corning 60 mm tissue culture dishes containing 6 mL MEM to examine colony formation. Ten days later, the colonies were fixed with 70% ethanol and stained with 5% Giemsa solution for quantitative visualization by the naked eye.

MMP-2 = target: T1, MMP-2 (Homo sapiens, UniProt P08253); test: MMP-2 fluorometric inhibitor screening kit assay; details: read-out: IC50 MMP-2; triplicate, S.D.
T1 sequence (P08253 110-660): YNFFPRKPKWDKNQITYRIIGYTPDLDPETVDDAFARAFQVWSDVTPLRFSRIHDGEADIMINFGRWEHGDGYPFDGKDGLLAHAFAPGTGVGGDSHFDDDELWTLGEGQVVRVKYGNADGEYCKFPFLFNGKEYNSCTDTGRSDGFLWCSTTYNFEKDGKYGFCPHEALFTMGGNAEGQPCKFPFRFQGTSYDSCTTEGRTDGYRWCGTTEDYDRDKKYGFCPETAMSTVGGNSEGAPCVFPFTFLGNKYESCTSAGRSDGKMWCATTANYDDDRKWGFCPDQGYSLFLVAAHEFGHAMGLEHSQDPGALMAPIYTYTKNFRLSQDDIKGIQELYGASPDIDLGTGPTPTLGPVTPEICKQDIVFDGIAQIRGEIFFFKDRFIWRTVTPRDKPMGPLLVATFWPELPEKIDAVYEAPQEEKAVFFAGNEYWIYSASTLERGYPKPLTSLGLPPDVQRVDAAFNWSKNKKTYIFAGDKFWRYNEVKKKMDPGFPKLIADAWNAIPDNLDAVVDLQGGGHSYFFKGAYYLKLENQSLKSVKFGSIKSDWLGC
Method: (§1) MMP-2, MMP-9, and MMP-13 were assayed for inhibition using the respective abcam: ab139447, ab139449, and ab139451 Inhibitor Screening Kits. The supplied kits were adaptable to a microplate reader protocol designed for observing a fluorometric change associated with the cleavage of substrate analog at 37 °C. Briefly, each assay or control included a combined volume of 100 µL. […] The enzymes were then diluted in the assay buffer and 20 µL of each was added to give an assay concentrations of 0.042 nM (MMP-2), 1.9 nM (MMP-9), and 1.86 nM (MMP-13). […] The reaction was excited at 328 nm and emission detected at 420 nm. Fluorescence was measured every 60 s for a total of 960 s.
(§2) For each assay, data were truncated at 1000 s and offsets were applied to bring the initial fluorescence of each assay to zero. Replicate data for assays of individual inhibitor concentrations were plotted in KaleidaGraph (Synergy Software) for comparison and obvious outliers were culled from the analysis. The remaining data were averaged to yield one trace for each inhibitor concentration. The average data were combined into a dataset that included all assayed inhibitor concentrations for each MMP paralog. […]
(§3) The error was calculated by propagating the error for ratios of rate constants derived from fitting.

MMP-9 = MMP-9 (Homo sapiens, UniProt P14780); test: MMP-9 fluorometric inhibitor screening kit assay; details: read-out: IC50 MMP-9; triplicate, S.D.
MMP-9, sequence (P14780 94-707): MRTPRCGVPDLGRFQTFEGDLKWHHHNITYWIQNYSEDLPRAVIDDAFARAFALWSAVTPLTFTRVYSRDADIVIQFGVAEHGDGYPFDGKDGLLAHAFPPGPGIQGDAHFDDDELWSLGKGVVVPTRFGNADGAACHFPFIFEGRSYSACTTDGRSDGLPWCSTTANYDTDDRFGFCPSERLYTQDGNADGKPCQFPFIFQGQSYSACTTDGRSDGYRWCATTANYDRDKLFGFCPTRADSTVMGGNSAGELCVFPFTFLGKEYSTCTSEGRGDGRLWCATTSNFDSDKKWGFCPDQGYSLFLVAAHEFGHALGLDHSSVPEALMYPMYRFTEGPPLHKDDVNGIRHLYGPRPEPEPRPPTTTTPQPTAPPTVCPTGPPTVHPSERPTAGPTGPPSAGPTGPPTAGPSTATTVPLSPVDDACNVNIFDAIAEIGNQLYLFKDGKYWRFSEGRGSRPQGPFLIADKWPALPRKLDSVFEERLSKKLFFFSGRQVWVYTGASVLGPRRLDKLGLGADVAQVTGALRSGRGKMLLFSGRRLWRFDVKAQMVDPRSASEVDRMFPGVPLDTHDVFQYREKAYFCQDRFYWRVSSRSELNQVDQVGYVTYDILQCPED
Method: as §1, §2, §3

SMILES	IC50 (SCC VII tumor cells [1]) [µM]	D37 absorbed dose (dose used to inhibit 63% colony formation) (SCC VII tumor cells [2]; SCC VII after in vitro BNCT, pre-incubation 0.143 ppm 10B (1), 0.101 ppm 10B (2)) [Gy]	Thermal neutron fluence yielding the D37 value (SCC VII tumor cells [2]; SCC VII, BPA 20 ppm 10B, 4 0.48 ppm 10B (Figure 9))	Survival rate ([3]; thermal neutron fluence 2.7 × 10^12 cm^−2) [%]	Survival rate ([3]; thermal neutron fluence […] 10^12 cm^−2) [%]	Thermal neutron fluence yielding the D37 value ([3]; U87 MG delta EGFR, 4 0.48 ppm 10B (Figure 8))	Thermal neutron fluence yielding the D37 value ([3]; U87 delta EGFR, 2 (B2) 0.7 ppm 10B (Figure 7))	IC50 (MMP-2) [µM]	IC50 (MMP-9) [µM]
N[C@@H](Cc1ccc(B(O)O)cc1)C(=O)O [BPA, L-boronophenylalanine, reference compound]	25500	0.82	6.0 × 10^11	6.2 ± 1.4	24.2 ± 7.7	1.2 × 10^12	1.0 × 10^12		
COc1ccc(S(=O)(=O)N(CC(=O)NO)CC(C)C)cc1 [NNGH, N-isobutyl-N-(4-methoxyphenylsulfonyl)glycyl hydroxamic acid, reference compound]								0.0085 ± 0.0011	0.0028 ± 1.4e-05
